According to patent US9688634B2, “Pest control agent” (priority 2012, dated 2017):

Columns and labels:
[1] = system: brown rice planthopper; assay: whole plant or invertebrate; assay type: in vivo; conditions: Oryza sativa, 120 h, immersion treatment of rice seedlings, second- to third-instar nymphs, 5 days after release, 25° C.
[2] = system: Haemaphysalis longicornis; assay: Test for Examining Effect on Haemaphysalis longicornis (Test Example 3); assay type: in vivo; conditions: treated plastic vial, young mites, 24 hours after contact, 25° C., dark
Experimental: Test for Examining Effect on Haemaphysalis longicornis
A solution prepared so that the concentration of each Invention Compound therein was 100 ppm was used to treat a plastic vial. After the liquid chemical was air-dried, young mites were placed in the vial. This vial was allowed to stand under constant dark conditions at 25° C. and a relative humidity of 80-100%. At 24 hours after the contact with the chemical, the number of dead mites was recorded. The mortality (%) was determined using the following calculation formula. […] Mortality (%)=((number of dead ticks)/(number of all ticks))×100

Row | SMILES | mortality at 200 ppm [1] [%] | mortality at 100 ppm [2] [%]
1 | CC(C)(C)c1ccc(C#Cc2ccncc2Br)cc1 [Compound No. 10, 3-bromo-4-((4-(tert-butyl)phenyl)ethynyl)pyridine] | ≥ 90 | 
2 | C=CCc1cnccc1C#Cc1ccc(C(C)(C)C)cc1 [Compound No. 17, 3-allyl-4-((4-tert-butylphenyl)ethynyl)pyridine] | ≥ 90 | ≥ 90
3 | COc1cnccc1C#Cc1ccc(C(C)(C)C)cc1 [Compound No. 21, 4-((4-(tert-butyl)phenyl)ethynyl)-3-methoxypyridine] | ≥ 90 | 
4 | CSc1cnccc1C#Cc1ccc(C(C)(C)C)cc1 [Compound No. 26, 4-((4-(tert-butyl)phenyl)ethynyl)-3-(methylthio)pyridine] | ≥ 90 | 
5 | CC(C)(C)c1ccc(C#Cc2ccncc2N)cc1 [Compound No. 30, 4-((4-(tert-butyl)phenyl)ethynyl)pyridine-3-amine] | ≥ 90 | 
6 | CCCNc1cnccc1C#Cc1ccc(C(C)(C)C)cc1 [Compound No. 32, 4-((4-(tert-butyl)phenyl)ethynyl)-N-propylpyridine-3-amine] | ≥ 90 | 
7 | CCNc1cnccc1C#Cc1ccc(C(C)(C)C)cc1 [Compound No. 112, 4-((4-tert-butylphenyl)ethynyl)-N-ethylpyridine-3-amine] | ≥ 90 | 
